The structures appear in SMILES notation. Where a SMILES comes first, the peptide text is derived from it. [ ]: non-standard residue; d: D form. Aoe = N[C@@H](CCCCCC(=O)[C@@H]1CO1)C(=O)O

The source of these data is ChEMBL document CHEMBL5233251, “Epoxide containing molecules: A good or a bad drug design approach” (Eur J Med Chem, 2020).

For one data set, the system named is A549. The experiment in a line: Antiproliferative activity against human A549 cells assessed as reduction in cell viability incubated for 72 hrs by MTT assay. The format is functional, cell-based. The conditions noted are these: A549, 72 h. On the technique in general: Formazan colour is commonly taken as a measure of viable cells.
The subject of the next data set is NCI-H460. As to the kind of experiment: Antiproliferative activity against human NCI-H460 cells assessed as reduction in cell viability incubated for 72 hrs by MTT assay. The format is functional, cell-based. The conditions noted are these: NCI-H460, 72 h.
Another data set deals with NCI-H1299. The experiment in a line: Antiproliferative activity against human NCI-H1299 cells assessed as reduction in cell viability incubated for 72 hrs by MTT assay. The format is functional, cell-based. The conditions noted are these: NCI-H1299, 72 h.
A further data set has as its system SK-MES-1. The experiment in a line: Antiproliferative activity against human SK-MES-1 cells assessed as reduction in cell viability incubated for 72 hrs by MTT assay. The class given is functional, cell-based. Particulars: SK-MES-1, 72 h.
A further data set relates to Calu-3. The experiment in a line: Antiproliferative activity against human Calu-3 cells assessed as reduction in cell viability incubated for 72 hrs by MTT assay. The format is functional, cell-based. The conditions noted are these: Calu-3, 72 h.
A short description of data set [1]: Cytotoxicity against human BEAS-2B assessed as reduction in cell viability incubated for 72 hrs by MTT assay. The format is toxicity, cell-based. The conditions noted are these: BEAS-2B cells.
In another data set the test system is DOHH-2. The experiment in a line: Antitumor activity against human DOHH-2 cells assessed as reduction in cell viability. The format is functional, cell-based.
Another data set relates to SUD4. As to the kind of experiment: Antitumor activity against human SU-DHL-4 cells assessed as reduction in cell viability. The class given is functional, cell-based.
The nature of data set [2]: Antitumor activity against human INA-6 cells assessed as reduction in cell viability. The format is functional, cell-based.
Another data set deals with RPMI-8226. The experiment in a line: Antitumor activity against human RPMI-8226 cells assessed as reduction in cell viability. The format is functional, cell-based.
Data set [3] in a line: Induction of apoptosis in human multiple myeloma cell. The class given is functional, cell-based.
The test system of another data set is T47D. The experiment in a line: Antiproliferative activity against human T47D cells assessed as inhibition of cell proliferation incubated for 72 hrs by DAPI staining based flow cytometric analysis. The class given is functional. (In general: A flow cytometer gives signals particle by particle.)
The nature of data set [4]: Antiproliferative activity against human SH-EP cells assessed as inhibition of cell growth by tryphan blue exclusion assay. The class given is functional, cell-based.
In another data set the test system is BE(2)-C. The experiment in a line: Antiproliferative activity against human BE2C cells assessed as inhibition of cell growth by tryphan blue exclusion assay. The class given is functional, cell-based.
For another data set, the system named is MCF7. As to the kind of experiment: Cytotoxicity against human MCF7 cells incubated for 24 hrs by MTT assay. The class given is functional, cell-based. Particulars: MCF7, 24 h.

As usually defined, the IC50 is the point on the concentration scale where inhibition reaches its midpoint. With `CC(=O)O[C@H]1[C@H]2O[C@]23[C@@H]2CC[C@@H]4C[C@@H](O)CC[C@]4(C)[C@H]2CC[C@]3(C)[C@H]1c1ccc(=O)oc1` [CINOBUFAGIN], the IC50 in the data set with A549, in the data set on NCI-H460, in the data set on NCI-H1299, in the data set with SK-MES-1 and in the data set on Calu-3 was 2.3 µM each time. Besides, the IC50 at 72 h in data set [1] worked out at 22.3 µM.
Usually EC50 stands for the concentration that produces a half-maximal response. As for `CC1=C(O)C(=O)c2c(ccc(O)c2O)C1=O` [DIONCOQUINONE B], the EC50 stood at 7.6 µM in the data set with DOHH-2; 7.6 µM with SUD4; 7.6 µM in data set [2]; 7.6 µM in the data set on RPMI-8226; 11 µM in data set [3].
For `C[C@@H]1NC(=O)[C@@H](C)NC(=O)[C@H](CCCCCC(=O)[C@@H]2CO2)NC(=O)[C@H]2CCCN2C1=O` (cyclo(A[dP][Aoe][dA])), the results for the IC50 (with T47D; in data set [4]; with BE(2)-C) were 0.037 µM, 0.018 µM and 0.015 µM, respectively.
In the case of `COc1cc(CNC(=O)CCCCC2OC2C(C)C)ccc1O` (stereo not given), the IC50 in the data set with MCF7 came to 50 µM.
